Test results as given in patent US4859782A (priority 1987, dated 1989).
Values after ≈ are worked out from the molar mass of the structure shown. Like-named read-outs stand apart in the source and are kept apart here.

Columns and labels:
[1] = tested on: vesicular stomatitis virus (VSV); type: cell-based; details: CV-1 cells, 8 μg/well
[2] = tested on: herpes simplex type 1 (HSV-1); type: cell-based
[3] = tested on: Penicillium atrovenetum; assay: microbe, parasite or virus in culture; type: cell-based; details: read-out: Antifungal activity, Pa: diameter of the zone of growth inhibition
[4] = tested on: CV-1 cells; details: for VSV cyt (cytotoxicity): VSV-infected CV-1 cells
[5] = tested on: Saccharomyces cerevisiae; assay: microbe, parasite or virus in culture; details: read-out: Antifungal activity, […]
[6] = tested on: Candida albicans; assay: microbe, parasite or virus in culture; details: read-out: Antifungal activity, […]
[7] = tested on: Candida albicans; assay: microbe, parasite or virus in culture; details: read-out: Ca MIC

Structure (SMILES): COC1CC(C)OC(CCC(C)C(O)C(C)C2OC(=O)C(C)=CCC(O)CC3C=CCC(CC(OC)C(C)C(O)CC(O)C(C)C(C(C)C(O)C(C)CCC4CC(OC)CC(C)O4)OC(=O)C(C)=CCC(O)CC4C=CCC(CC(OC)C(C)C(O)CC(O)C2C)O4)O3)C1 (stereo not drawn) [misakinolide, Misakinolide]
- VSV av (antiviral activity) [1]: +
- HSV-1 av (antiviral activity) [2]: ++ and +
- zone of inhibition at 5 µg/disc [3]: 10 mm
- HSV-1 cyt (cytotoxicity) [4]: 0
- VSV cyt (cytotoxicity) ([4]; 4 μg/well): 0
- VSV cyt (cytotoxicity) ([4]; 8 μg/well): 0
- zone of inhibition at 5 µg/disc [5]: 12 mm
- zone of inhibition at 5 µg/disc [6]: 10 mm
- MIC [7]: 5 µg/mL (≈ 3.74 µM)
